Results published in PubChem BioAssay (NCI).
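48-hour exposure; five concentrations; linearly interpolated endpoints. TGI is the concentration that stops growth completely.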

How the values were obtained:
Test in all cases: NCI-60 cell line screen, 48 h
786-0 renal = tested on: 786-0 renal
SK-OV-3 ovarian = tested on: SK-OV-3 ovarian
HT29 colon = tested on: HT29 colon
DU-145 prostate = tested on: DU-145 prostate
NCI-H23 lung = tested on: NCI-H23 lung
UACC-62 melanoma = tested on: UACC-62 melanoma
ACHN renal = tested on: ACHN renal
MDA-MB-435 = tested on: MDA-MB-435
RXF 393 renal = tested on: RXF 393 renal
M14 melanoma = tested on: M14 melanoma
U251 CNS = tested on: U251 CNS
MALME-3M melanoma = tested on: MALME-3M melanoma
SR leukemia = tested on: SR leukemia
COLO 205 colon = tested on: COLO 205 colon
SF-295 CNS = tested on: SF-295 CNS
PC-3 prostate = tested on: PC-3 prostate
SF-268 CNS = tested on: SF-268 CNS
OVCAR-4 ovarian = tested on: OVCAR-4 ovarian
TK-10 renal = tested on: TK-10 renal
A549 NSCLC = tested on: A549 NSCLC
NCI-H460 lung = tested on: NCI-H460 lung
OVCAR-3 ovarian = tested on: OVCAR-3 ovarian
MDA-MB-231 breast = tested on: MDA-MB-231 breast
HCC-2998 colon = tested on: HCC-2998 colon
A498 renal = tested on: A498 renal
CCRF-CEM leukemia = tested on: CCRF-CEM leukemia
UO-31 renal = tested on: UO-31 renal
SF-539 CNS = tested on: SF-539 CNS
SK-MEL-2 melanoma = tested on: SK-MEL-2 melanoma
MOLT-4 leukemia = tested on: MOLT-4 leukemia
K-562 leukemia = tested on: K-562 leukemia
MDA-N = tested on: MDA-N
HCT-116 colon = tested on: HCT-116 colon
NCI/ADR-RES ovarian = tested on: NCI/ADR-RES ovarian
SN12C renal = tested on: SN12C renal
T-47D breast = tested on: T-47D breast
KM12 colon = tested on: KM12 colon
HOP-62 NSCLC = tested on: HOP-62 NSCLC
SNB-19 CNS = tested on: SNB-19 CNS
SK-MEL-5 melanoma = tested on: SK-MEL-5 melanoma
NCI-H522 lung = tested on: NCI-H522 lung
SNB-75 CNS = tested on: SNB-75 CNS
EKVX NSCLC = tested on: EKVX NSCLC
LOX IMVI melanoma = tested on: LOX IMVI melanoma
BT-549 breast = tested on: BT-549 breast
CAKI-1 renal = tested on: CAKI-1 renal
HS 578T breast = tested on: HS 578T breast
IGROV1 ovarian = tested on: IGROV1 ovarian
SW-620 colon = tested on: SW-620 colon
OVCAR-8 ovarian = tested on: OVCAR-8 ovarian
HOP-92 NSCLC = tested on: HOP-92 NSCLC
MCF7 breast = tested on: MCF7 breast
NCI-H226 lung = tested on: NCI-H226 lung
UACC-257 melanoma = tested on: UACC-257 melanoma
HCT-15 colon = tested on: HCT-15 colon
HL-60(TB) leukemia = tested on: HL-60(TB) leukemia
SK-MEL-28 melanoma = tested on: SK-MEL-28 melanoma
OVCAR-5 ovarian = tested on: OVCAR-5 ovarian
RPMI-8226 leukemia = tested on: RPMI-8226 leukemia

## OC1(c2ccccc2)CSc2ncnn21 (centres undefined)
786-0 renal
  TGI: > 100 µM
SK-OV-3 ovarian
  TGI: > 100 µM
HT29 colon
  TGI: > 100 µM
DU-145 prostate
  TGI: > 100 µM
NCI-H23 lung
  TGI: > 100 µM
UACC-62 melanoma
  TGI: > 100 µM
ACHN renal
  TGI: > 100 µM
MDA-MB-435
  TGI: > 100 µM
RXF 393 renal
  TGI: > 100 µM
M14 melanoma
  TGI: > 100 µM
U251 CNS
  TGI: > 100 µM
MALME-3M melanoma
  TGI: > 100 µM
SR leukemia
  TGI: > 100 µM
COLO 205 colon
  TGI: > 100 µM
SF-295 CNS
  TGI: > 100 µM
PC-3 prostate
  TGI: > 100 µM
SF-268 CNS
  TGI: > 100 µM
OVCAR-4 ovarian
  TGI: > 100 µM
TK-10 renal
  TGI: > 100 µM
A549 NSCLC
  TGI: > 100 µM
NCI-H460 lung
  TGI: > 100 µM
OVCAR-3 ovarian
  TGI: > 100 µM
MDA-MB-231 breast
  TGI: > 100 µM
HCC-2998 colon
  TGI: > 100 µM
A498 renal
  TGI: > 100 µM
CCRF-CEM leukemia
  TGI: > 100 µM
UO-31 renal
  TGI: > 100 µM
SF-539 CNS
  TGI: > 100 µM
SK-MEL-2 melanoma
  TGI: > 100 µM
MOLT-4 leukemia
  TGI: > 100 µM
K-562 leukemia
  TGI: > 100 µM
MDA-N
  TGI: > 100 µM
HCT-116 colon
  TGI: > 100 µM
NCI/ADR-RES ovarian
  TGI: > 100 µM
SN12C renal
  TGI: > 100 µM
T-47D breast
  TGI: > 100 µM
KM12 colon
  TGI: > 100 µM
HOP-62 NSCLC
  TGI: > 100 µM
SNB-19 CNS
  TGI: > 100 µM
SK-MEL-5 melanoma
  TGI: > 100 µM
NCI-H522 lung
  TGI: > 100 µM
SNB-75 CNS
  TGI: > 100 µM
EKVX NSCLC
  TGI: > 100 µM
LOX IMVI melanoma
  TGI: > 100 µM
BT-549 breast
  TGI: > 100 µM
CAKI-1 renal
  TGI: > 100 µM
HS 578T breast
  TGI: > 100 µM
IGROV1 ovarian
  TGI: > 100 µM
SW-620 colon
  TGI: > 100 µM
OVCAR-8 ovarian
  TGI: > 100 µM
HOP-92 NSCLC
  TGI: > 100 µM
MCF7 breast
  TGI: > 100 µM
NCI-H226 lung
  TGI: > 100 µM
UACC-257 melanoma
  TGI: > 100 µM
HCT-15 colon
  TGI: > 100 µM
HL-60(TB) leukemia
  TGI: > 100 µM

## COc1ccc(CN=C2N/C(=C\c3ccccc3Cl)C(=O)N2C)cc1
786-0 renal
  TGI: 36.1 µM
SK-OV-3 ovarian
  TGI: > 100 µM
HT29 colon
  TGI: 57.2 µM
DU-145 prostate
  TGI: > 100 µM
UACC-62 melanoma
  TGI: 37.6 µM
ACHN renal
  TGI: > 100 µM
MDA-MB-435
  TGI: 46.8 µM
RXF 393 renal
  TGI: > 100 µM
M14 melanoma
  TGI: 36.2 µM
U251 CNS
  TGI: 40.7 µM
MALME-3M melanoma
  TGI: > 100 µM
SR leukemia
  TGI: 90 µM
COLO 205 colon
  TGI: 58.8 µM
SF-295 CNS
  TGI: > 100 µM
PC-3 prostate
  TGI: 96.6 µM
SF-268 CNS
  TGI: > 100 µM
OVCAR-4 ovarian
  TGI: 86.4 µM
TK-10 renal
  TGI: > 100 µM
A549 NSCLC
  TGI: > 100 µM
NCI-H460 lung
  TGI: > 100 µM
OVCAR-3 ovarian
  TGI: 52.4 µM
MDA-MB-231 breast
  TGI: 96.9 µM
HCC-2998 colon
  TGI: 59.9 µM
A498 renal
  TGI: 77.9 µM
SF-539 CNS
  TGI: 72.7 µM
SK-MEL-2 melanoma
  TGI: 42.8 µM
MOLT-4 leukemia
  TGI: > 100 µM
K-562 leukemia
  TGI: > 100 µM
MDA-N
  TGI: 44.5 µM
HCT-116 colon
  TGI: 39.3 µM
NCI/ADR-RES ovarian
  TGI: > 100 µM
SN12C renal
  TGI: 39.8 µM
T-47D breast
  TGI: 48.8 µM
KM12 colon
  TGI: 52.2 µM
HOP-62 NSCLC
  TGI: > 100 µM
SNB-19 CNS
  TGI: > 100 µM
SK-MEL-5 melanoma
  TGI: 43.2 µM
NCI-H522 lung
  TGI: 51.1 µM
SNB-75 CNS
  TGI: 38.4 µM
EKVX NSCLC
  TGI: > 100 µM
SK-MEL-28 melanoma
  TGI: > 100 µM
LOX IMVI melanoma
  TGI: 43 µM
BT-549 breast
  TGI: 94.8 µM
CAKI-1 renal
  TGI: > 100 µM
HS 578T breast
  TGI: > 100 µM
IGROV1 ovarian
  TGI: 62.6 µM
SW-620 colon
  TGI: 50.1 µM
OVCAR-8 ovarian
  TGI: 77.4 µM
OVCAR-5 ovarian
  TGI: > 100 µM
HOP-92 NSCLC
  TGI: 63.4 µM
MCF7 breast
  TGI: 90.2 µM
NCI-H226 lung
  TGI: > 100 µM
UACC-257 melanoma
  TGI: > 100 µM
HCT-15 colon
  TGI: > 100 µM
HL-60(TB) leukemia
  TGI: 57.9 µM

## O=c1[nH]cnc2[nH]cc(CN3CCCCC3)c12
786-0 renal
  TGI: > 100 µM
SK-OV-3 ovarian
  TGI: > 100 µM
HT29 colon
  TGI: > 100 µM
DU-145 prostate
  TGI: > 100 µM
NCI-H23 lung
  TGI: > 100 µM
UACC-62 melanoma
  TGI: > 100 µM
ACHN renal
  TGI: > 100 µM
MDA-MB-435
  TGI: > 100 µM
RXF 393 renal
  TGI: > 100 µM
M14 melanoma
  TGI: > 100 µM
U251 CNS
  TGI: > 100 µM
MALME-3M melanoma
  TGI: > 100 µM
SR leukemia
  TGI: > 100 µM
COLO 205 colon
  TGI: > 100 µM
SF-295 CNS
  TGI: > 100 µM
PC-3 prostate
  TGI: > 100 µM
SF-268 CNS
  TGI: > 100 µM
OVCAR-4 ovarian
  TGI: > 100 µM
TK-10 renal
  TGI: > 100 µM
A549 NSCLC
  TGI: > 100 µM
NCI-H460 lung
  TGI: 43.8 µM
OVCAR-3 ovarian
  TGI: > 100 µM
MDA-MB-231 breast
  TGI: > 100 µM
A498 renal
  TGI: > 100 µM
CCRF-CEM leukemia
  TGI: 36.2 µM
UO-31 renal
  TGI: > 100 µM
SF-539 CNS
  TGI: > 100 µM
SK-MEL-2 melanoma
  TGI: > 100 µM
MOLT-4 leukemia
  TGI: > 100 µM
K-562 leukemia
  TGI: > 100 µM
MDA-N
  TGI: > 100 µM
HCT-116 colon
  TGI: 30.6 µM
NCI/ADR-RES ovarian
  TGI: > 100 µM
SN12C renal
  TGI: > 100 µM
T-47D breast
  TGI: > 100 µM
KM12 colon
  TGI: > 100 µM
HOP-62 NSCLC
  TGI: > 100 µM
SNB-19 CNS
  TGI: > 100 µM
SK-MEL-5 melanoma
  TGI: > 100 µM
NCI-H522 lung
  TGI: > 100 µM
SNB-75 CNS
  TGI: > 100 µM
EKVX NSCLC
  TGI: > 100 µM
SK-MEL-28 melanoma
  TGI: > 100 µM
LOX IMVI melanoma
  TGI: > 100 µM
BT-549 breast
  TGI: > 100 µM
CAKI-1 renal
  TGI: > 100 µM
HS 578T breast
  TGI: > 100 µM
RPMI-8226 leukemia
  TGI: 87.2 µM
IGROV1 ovarian
  TGI: > 100 µM
SW-620 colon
  TGI: > 100 µM
OVCAR-8 ovarian
  TGI: > 100 µM
OVCAR-5 ovarian
  TGI: > 100 µM
HOP-92 NSCLC
  TGI: > 100 µM
MCF7 breast
  TGI: > 100 µM
NCI-H226 lung
  TGI: > 100 µM
UACC-257 melanoma
  TGI: 87.3 µM
HCT-15 colon
  TGI: > 100 µM
HL-60(TB) leukemia
  TGI: 38.2 µM
